The values below come from the NIST ThermoML archive (doi:10.1021/je800863c).

Molecules are shown by their SMILES. ± gives the expanded uncertainty stated by the source.

For the data set the following is noted: for surface tension liquid-gas: Pendant drop shape; for viscosity / mass density: 101.33 kPa, Liquid; for viscosity: Falling or rolling sphere viscometry; for mass density: Vibrating tube method.

In general, surface tension liquid-gas refers to the force per length acting along the surface. Broadly, the viscosity is the internal friction of a fluid under shear. A word on the mass density: it is mass per unit of volume. Consider `COS(=O)(=O)[O-].Cn1cc[n+](C)c1` [1,3-dimethylimidazolium methylsulfate], for which, where the note is “298.15 K”, the surface tension liquid-gas is listed as 59.42 ± 0.8 mN/m, the viscosity came out at 75.5 ± 4.7 mPa·s and the mass density was found to be 1328.38 ± 1.6 kg/m3. Moreover, under “313.15 K”, the surface tension liquid-gas was 58.99 ± 0.8 mN/m, the viscosity came to 40.8 ± 2.5 mPa·s and the mass density is 1317.85 ± 1.6 kg/m3.
With `CCCCn1cc[n+](C)c1.CCOS(=O)(=O)[O-]` [1-butyl-3-methyl-1H-imidazolium ethyl sulfate], where the note is “298.15 K”, the surface tension liquid-gas came out at 36.38 ± 0.51 mN/m, the viscosity turned out to be 379.1 ± 33 mPa·s and the mass density was determined as 1198.93 ± 1.3 kg/m3. Moreover, under “313.15 K”, the surface tension liquid-gas is listed as 33.91 ± 0.48 mN/m, the viscosity is on record as 164 ± 12 mPa·s and the mass density was 1188.69 ± 1.2 kg/m3.
Regarding `CCCCn1cc[n+](C)c1.COS(=O)(=O)[O-]` [1-butyl-3-methylimidazolium methyl sulfate], where the note is “298.15 K”, the surface tension liquid-gas was determined as 43.3 ± 1.2 mN/m and the mass density was found to be 1212.95 ± 8 kg/m3. For the setting “313.15 K”, the surface tension liquid-gas came out at 42.09 ± 1.1 mN/m, the viscosity was determined as 104.2 ± 7.7 mPa·s and the mass density worked out at 1199.75 ± 7.8 kg/m3.
As for `CCOS(=O)(=O)[O-].CCn1cc[n+](C)c1` [1-ethyl-3-methylimidazolium ethyl sulfate], under “298.15 K”, the viscosity was 91.8 ± 6.2 mPa·s and the mass density is 1236.26 ± 8.3 kg/m3. Under “313.15 K”, the surface tension liquid-gas was found to be 46.78 ± 1.2 mN/m, the viscosity turned out to be 48.5 ± 3.2 mPa·s and the mass density amounted to 1226.79 ± 8.2 kg/m3.
Take `CCCCCCn1cc[n+](C)c1.CCOS(=O)(=O)[O-]` [1-hexyl-3-methylimidazolium ethyl sulfate]: under “298.15 K”, the surface tension liquid-gas is 31.77 ± 0.45 mN/m, the viscosity came to 589 ± 57 mPa·s and the mass density was 1150.6 ± 1.2 kg/m3. For the same compound, where the note is “313.15 K”, the surface tension liquid-gas stood at 29.63 ± 0.43 mN/m, the viscosity is 236 ± 19 mPa·s and the mass density is on record as 1140.6 ± 1.1 kg/m3.
Consider `CCCCCCn1cc[n+](C)c1.COS(=O)(=O)[O-]` [1-hexyl-3-methylimidazolium methyl sulfate], for which, where the note is “298.15 K”, the surface tension liquid-gas amounted to 33.59 ± 0.48 mN/m, the viscosity was 383 ± 34 mPa·s and the mass density is on record as 1168.83 ± 1.2 kg/m3. Further, under “313.15 K”, the surface tension liquid-gas is 33.54 ± 0.48 mN/m, the viscosity turned out to be 164.3 ± 12 mPa·s and the mass density was determined as 1158.87 ± 1.2 kg/m3.
`CCCCCCCC[n+]1ccn(C)c1.CCOS(=O)(=O)[O-]` [1-methyl-3-octylimidazolium ethyl sulfate]: for the setting “298.15 K”, the surface tension liquid-gas is recorded as 28.67 ± 0.41 mN/m and the mass density was 1115.93 ± 1.1 kg/m3. Moreover, for the setting “313.15 K”, the surface tension liquid-gas is on record as 27.94 ± 0.41 mN/m, the viscosity was 275.2 ± 25 mPa·s and the mass density turned out to be 1106.2 ± 1.1 kg/m3.
The corresponding values for `CCCCCCCC[n+]1ccn(C)c1.COS(=O)(=O)[O-]` [1-methyl-3-octylimidazolium methyl sulfate] are 30.41 ± 0.44 mN/m, 1114.47 ± 1.1 kg/m3, 30.03 ± 0.43 mN/m, 180.6 ± 15 mPa·s and 1104.64 ± 1.1 kg/m3.
